Data: patent US20100168102A9, “Amide Derivatives as Kinase Inhibitors” (Devgen NV, priority 2005, published 2010)

Experiments:
PKC epsilon = biological target: T1, PKC epsilon (Homo sapiens, UniProt Q02156); experiment: Biochemical assay for PKC epsilon (fluorescence polarization, Protein Kinase C Assay Kit, Red); conditions: compounds of Formula XIV, Table 3; read-out: IC50 μM PKCε
T1 construct: purchased Invitrogen P2282
T1 sequence (Q02156 1-737): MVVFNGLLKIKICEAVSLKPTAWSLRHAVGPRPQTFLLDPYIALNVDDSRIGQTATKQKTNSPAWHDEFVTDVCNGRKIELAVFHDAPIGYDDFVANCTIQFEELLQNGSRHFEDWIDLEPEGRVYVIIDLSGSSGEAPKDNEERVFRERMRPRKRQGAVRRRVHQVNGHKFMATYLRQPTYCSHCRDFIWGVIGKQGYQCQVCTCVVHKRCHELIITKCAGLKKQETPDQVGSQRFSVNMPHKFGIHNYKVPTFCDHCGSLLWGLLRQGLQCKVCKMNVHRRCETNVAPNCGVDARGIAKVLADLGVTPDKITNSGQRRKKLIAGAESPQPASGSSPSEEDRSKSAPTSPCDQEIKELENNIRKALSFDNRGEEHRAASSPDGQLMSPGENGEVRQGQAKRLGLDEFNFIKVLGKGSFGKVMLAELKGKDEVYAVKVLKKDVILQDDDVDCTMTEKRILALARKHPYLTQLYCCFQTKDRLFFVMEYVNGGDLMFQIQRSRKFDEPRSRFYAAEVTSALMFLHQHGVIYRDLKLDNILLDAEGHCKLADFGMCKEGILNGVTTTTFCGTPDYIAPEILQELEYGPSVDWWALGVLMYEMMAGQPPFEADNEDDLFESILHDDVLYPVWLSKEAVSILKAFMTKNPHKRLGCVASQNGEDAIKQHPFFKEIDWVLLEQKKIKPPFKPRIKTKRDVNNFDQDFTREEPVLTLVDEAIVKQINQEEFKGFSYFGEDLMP
How it was run: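 PKC epsilon at 10 ng/ml final was preincubated 30 min at room temperature with compound in HEPES pH 7.4 with DTT and Triton X-100. ATP/protein substrate was then added in buffer with MgCl2 and CaCl2 for 80 min. The reaction was stopped with EDTA, phosphorylation was detected by fluorescence polarization with rhodamine tracer and anti-phosphoserine antibody, and IC50 values came from curve fits.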

human ROCKα/ROCKII mix = biological target: T2, human ROCKα/ROCKII mix (Homo sapiens, UniProt O75116); experiment: Biochemical assay for ROCK (fluorescence polarization, ROCK IMAP Kit); conditions: compounds of Formula XIV, Table 3
T2 construct: purchased Upstate Biotechnology 14-451
T2 sequence (O75116 11-552 limits assumed): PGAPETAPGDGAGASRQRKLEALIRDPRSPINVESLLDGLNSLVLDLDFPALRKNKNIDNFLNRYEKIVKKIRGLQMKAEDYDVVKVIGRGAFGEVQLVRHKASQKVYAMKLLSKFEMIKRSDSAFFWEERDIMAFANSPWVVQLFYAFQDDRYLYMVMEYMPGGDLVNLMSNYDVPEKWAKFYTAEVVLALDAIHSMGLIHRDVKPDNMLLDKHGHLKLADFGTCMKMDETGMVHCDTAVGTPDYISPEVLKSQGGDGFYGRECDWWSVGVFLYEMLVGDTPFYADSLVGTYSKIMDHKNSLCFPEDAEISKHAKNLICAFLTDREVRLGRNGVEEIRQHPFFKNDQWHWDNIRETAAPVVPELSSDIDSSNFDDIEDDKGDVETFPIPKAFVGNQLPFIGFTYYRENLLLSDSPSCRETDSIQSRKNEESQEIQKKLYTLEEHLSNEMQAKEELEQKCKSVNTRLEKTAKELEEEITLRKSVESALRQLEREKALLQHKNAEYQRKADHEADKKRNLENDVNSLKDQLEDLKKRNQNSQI

Row | SMILES | IC50 (PKC epsilon) [µM] | IC50 (human ROCKα/ROCKII mix) [µM]
1 | NC(CC(=O)NCc1cccc(Cl)c1)c1ccc(C(=O)Nc2ccncc2)cc1 (stereo not drawn) [Compound 248, 4-[1-Amino-2-(3-chloro-benzylcarbamoyl)-ethyl]-N-pyridin-4-yl-benzamide] | 0.05 to 0.5 | 0.05 to 0.5
2 | Cc1ccc(CNC(=O)CC(N)c2ccc(C(=O)Nc3ccncc3)cc2)cc1Cl (stereo not drawn) [Compound 249, 4-[1-Amino-2-(3-chloro-4-methyl-benzylcarbamoyl)-ethyl]-N-pyridin-4-yl-benzamide] | 0.5 to 5 | 0.05 to 0.5
3 | NC(CC(=O)NCc1cc(Cl)cc(Cl)c1)c1ccc(C(=O)Nc2ccncc2)cc1 (stereo not drawn) [Compound 250, 4-[1-Amino-2-(3,5-dichloro-benzylcarbamoyl)-ethyl]-N-pyridin-4-yl-benzamide] | 0.5 to 5 | 0.05 to 0.5
4 | NC(CC(=O)NCc1cc(Cl)ccc1Cl)c1ccc(C(=O)Nc2ccncc2)cc1 (stereo not drawn) [Compound 251, 4-[1-Amino-2-(3,6-dichloro-benzylcarbamoyl)-ethyl]-N-pyridin-4-yl-benzamide] | 0.5 to 5 | 0.05 to 0.5
5 | NC(CC(=O)NCc1ccc(Cl)cc1Cl)c1ccc(C(=O)Nc2ccncc2)cc1 (stereo not drawn) [Compound 252, 4-[1-Amino-2-(2,4-dichloro-benzylcarbamoyl)-ethyl]-N-pyridin-4-yl-benzamide] | 0.5 to 5 | 0.05 to 0.5
6 | NC(CC(=O)NC(c1ccccc1)c1ccc(Cl)cc1)c1ccc(C(=O)Nc2ccncc2)cc1 (stereo not drawn) [Compound 255, 4-(1-Amino-2-{[(4-chloro-phenyl)-phenyl-methyl]-carbamoyl}-ethyl)-N-pyridin-4-yl-benzamide] | 0.5 to 5 | 0.05 to 0.5
7 | NC(CC(=O)NCc1cccc(F)c1)c1ccc(C(=O)Nc2ccncc2)cc1 (stereo not drawn) [Compound 257, 4-[1-Amino-2-(3-fluoro-benzylcarbamoyl)-ethyl]-N-pyridin-4-yl-benzamide] | 0.5 to 5 | 0.05 to 0.5
8 | NC(CC(=O)NCc1cccc(Br)c1)c1ccc(C(=O)Nc2ccncc2)cc1 (stereo not drawn) [Compound 260, 4-[1-Amino-2-(3-bromo-benzylcarbamoyl)-ethyl]-N-pyridin-4-yl-benzamide] | 0.5 to 5 | 0.05 to 0.5
9 | NC(CC(=O)NCc1ccc(Br)cc1F)c1ccc(C(=O)Nc2ccncc2)cc1 (stereo not drawn) [Compound 262, 4-[1-Amino-2-(4-bromo-2-fluoro-benzylcarbamoyl)-ethyl]-N-pyridin-4-yl-benzamide] | 0.5 to 5 | 0.05 to 0.5
10 | NC(CC(=O)NCc1ccccc1C(F)(F)F)c1ccc(C(=O)Nc2ccncc2)cc1 (stereo not drawn) [Compound 263, 4-[1-Amino-2-(2-trifluoromethyl-benzylcarbamoyl)-ethyl]-N-pyridin-4-yl-benzamide] | 0.5 to 5 | 0.05 to 0.5
11 | NC(CC(=O)NCc1ccc(C(F)(F)F)cc1)c1ccc(C(=O)Nc2ccncc2)cc1 (stereo not drawn) [Compound 265, 4-[1-Amino-2-(4-trifluoromethyl-benzylcarbamoyl)-ethyl]-N-pyridin-4-yl-benzamide] | 0.5 to 5 | 0.05 to 0.5
12 | NC(CC(=O)NCc1ccc(C(F)(F)F)c(F)c1)c1ccc(C(=O)Nc2ccncc2)cc1 (stereo not drawn) [Compound 267, 4-[1-Amino-2-(3-fluoro-4-trifluoromethyl-benzylcarbamoyl)-ethyl]-N-pyridin-4-yl-benzamide] | 0.5 to 5 | 0.05 to 0.5
13 | NC(CC(=O)NCc1ccccc1OC(F)(F)F)c1ccc(C(=O)Nc2ccncc2)cc1 (stereo not drawn) [Compound 269, 4-[1-Amino-2-(2-trifluoromethoxy-benzylcarbamoyl)-ethyl]-N-pyridin-4-yl-benzamide] | 0.5 to 5 | 0.05 to 0.5
14 | NC(CC(=O)NCc1cccc(OC(F)(F)F)c1)c1ccc(C(=O)Nc2ccncc2)cc1 (stereo not drawn) [Compound 270, 4-[1-Amino-2-(3-trifluoromethoxy-benzylcarbamoyl)-ethyl]-N-pyridin-4-yl-benzamide] | 0.5 to 5 | 0.05 to 0.5
15 | NC(CC(=O)NCc1ccc([N+](=O)[O-])cc1)c1ccc(C(=O)Nc2ccncc2)cc1 (stereo not drawn) [Compound 273, 4-[1-Amino-2-(4-nitro-benzylcarbamoyl)-ethyl]-N-pyridin-4-yl-benzamide] | 0.5 to 5 | 0.05 to 0.5
16 | CS(=O)(=O)c1ccc(CNC(=O)CC(N)c2ccc(C(=O)Nc3ccncc3)cc2)cc1 (stereo not drawn) [Compound 275, 4-[1-Amino-2-(4-methanesulfonyl-benzylcarbamoyl)-ethyl]-N-pyridin-4-yl-benzamide] | 0.5 to 5 | 0.05 to 0.5
17 | NC(CC(=O)NC1Cc2ccccc2C1)c1ccc(C(=O)Nc2ccncc2)cc1 (stereo not drawn) [Compound 280, 4-[1-amino-2-(indan-2-ylcarbamoyl)-ethyl]-N-pyridin-4-yl-benzamide] | 0.5 to 5 | 0.05 to 0.5

Other lines, results leading:

Row | IC50 (PKC epsilon) [µM] | IC50 (human ROCKα/ROCKII mix) [µM] | SMILES
18 | 0.05 to 0.5 | 0.05 to 0.5 | NC(CC(=O)NCc1cccc(Cl)c1Cl)c1ccc(C(=O)Nc2ccncc2)cc1 (stereo not drawn) [Compound 253, 4-[1-Amino-2-(2,3-dichloro-benzylcarbamoyl)-ethyl]-N-pyridin-4-yl-benzamide]
19 | 0.5 to 5 | 0.05 to 0.5 | NC(CC(=O)NCc1ccccc1F)c1ccc(C(=O)Nc2ccncc2)cc1 (stereo not drawn) [Compound 256, 4-[1-Amino-2-(2-fluoro-benzylcarbamoyl)-ethyl]-N-pyridin-4-yl-benzamide]
20 | 0.05 to 0.5 | 0.05 to 0.5 | NC(CC(=O)NCc1ccc(F)cc1)c1ccc(C(=O)Nc2ccncc2)cc1 (stereo not drawn) [Compound 258, 4-[1-Amino-2-(4-fluoro-benzylcarbamoyl)-ethyl]-N-pyridin-4-yl-benzamide]
21 | 0.5 to 5 | 0.05 to 0.5 | NC(CC(=O)NCc1ccccc1Br)c1ccc(C(=O)Nc2ccncc2)cc1 (stereo not drawn) [Compound 259, 4-[1-Amino-2-(2-bromo-benzylcarbamoyl)-ethyl]-N-pyridin-4-yl-benzamide]
22 | 0.5 to 5 | 0.05 to 0.5 | NC(CC(=O)NCc1ccc(F)cc1Cl)c1ccc(C(=O)Nc2ccncc2)cc1 (stereo not drawn) [Compound 261, 4-[1-Amino-2-(2-chloro-4-fluoro-benzylcarbamoyl)-ethyl]-N-pyridin-4-yl-benzamide]
23 | 0.5 to 5 | 0.05 to 0.5 | NC(CC(=O)NCc1cccc(C(F)(F)F)c1)c1ccc(C(=O)Nc2ccncc2)cc1 (stereo not drawn) [Compound 264, 4-[1-Amino-2-(3-trifluoromethyl-benzylcarbamoyl)-ethyl]-N-pyridin-4-yl-benzamide]
24 | 0.5 to 5 | 0.05 to 0.5 | NC(CC(=O)NCc1ccc(F)c(C(F)(F)F)c1)c1ccc(C(=O)Nc2ccncc2)cc1 (stereo not drawn) [Compound 266, 4-[1-Amino-2-(4-fluoro-3-trifluoromethyl-benzylcarbamoyl)-ethyl]-N-pyridin-4-yl-benzamide]
25 | 0.5 to 5 | 0.05 to 0.5 | NC(CC(=O)NCc1cc(C(F)(F)F)cc(C(F)(F)F)c1)c1ccc(C(=O)Nc2ccncc2)cc1 (stereo not drawn) [Compound 268, 4-[1-Amino-2-(3,5-bis-trifluoromethyl-benzylcarbamoyl)-ethyl]-N-pyridin-4-yl-benzamide]
26 | 0.5 to 5 | 0.05 to 0.5 | NC(CC(=O)NCc1ccc(OC(F)(F)F)cc1)c1ccc(C(=O)Nc2ccncc2)cc1 (stereo not drawn) [Compound 271, 4-[1-Amino-2-(4-trifluoromethoxy-benzylcarbamoyl)-ethyl]-N-pyridin-4-yl-benzamide]
27 | 0.5 to 5 | 0.05 to 0.5 | NC(CC(=O)NCc1cccc([N+](=O)[O-])c1)c1ccc(C(=O)Nc2ccncc2)cc1 (stereo not drawn) [Compound 272, 4-[1-Amino-2-(3-nitro-benzylcarbamoyl)-ethyl]-N-pyridin-4-yl-benzamide]
